Assay: xn = mol fraction of the nth substance listed
Conditions: 101 kPa, Liquid, Small sample (50 mg) DSC

NCc1ccccc1 [benzylamine] + CO
excess molar heat capacity [J/K/mol]
Conditions	293.15 K	298.15 K	308.15 K
x2 = 0.0537	1.16	1.26	1.59
x2 = 0.1106	2.61	2.84	3.36
x2 = 0.2041	5.02	5.43	6.08
x2 = 0.2963	7.9	8.16	8.87
x2 = 0.3518	9.32	9.77	10.2
x2 = 0.397	10.86	11.3	11.89
x2 = 0.4966	12.24	12.88	13.26
x2 = 0.5512	12.66	13.17	13.67
x2 = 0.5987	12.63	12.99	13.38
x2 = 0.6991	10.63	11.13	11.55
x2 = 0.7484	9.18	9.49	10
x2 = 0.7988	7.43	7.67	8.28
x2 = 0.849	4.92	5.29	5.72
x2 = 0.9009	3.22	3.49	3.8

NCc1ccccc1 [benzylamine] + CCCCCO
excess molar heat capacity [J/K/mol]
Conditions	293.15 K	298.15 K	308.15 K
x2 = 0.0495	2.15	2.31	2.12
x2 = 0.1528	5.18	5.79	5.71
x2 = 0.2765	8.64	8.73	8.42
x2 = 0.2967	9.27	9.48	8.89
x2 = 0.4512	12.51	12.28	11.2
x2 = 0.4994	13.7	13.25	12.08
x2 = 0.6006	13.71	13.13	11.91
x2 = 0.6516	12.63	12.04	10.9
x2 = 0.7019	11.57	10.98	9.9
x2 = 0.7998	9.04	8.54	7.76
x2 = 0.8493	7.39	7.06	6.31
x2 = 0.899	5.41	5.16	4.6
x2 = 0.9505	2.72	2.46	2.3

Reference: the NIST ThermoML archive (doi:10.1016/j.tca.2014.03.027)
